Measured values taken from patent publication US20180186769A1, “6-AMINO-5-FLUORO-5-(FLUOROMETHYL)-2,3,4,5-TETRAHYDROPYRIDIN-2-YL-PHENYL-5-(METHOXY-D3)-PYRAZINE-2-CARBOXAMIDES AND FLUORINATED DERIVATIVES THEREOF AS BACE1 INHIBITORS” (H. Lundbeck A/S, priority 2016, published 2018).

Columns and labels:
Assay type in all cases: in vitro ADME
[1] = test system: P-gp (MDR1); test: MDCK-MDR1 assay (permeability, efflux ratio); settings: dog, Papp BA/Papp AB
Description: The permeability of the test compounds was assessed in MDCK-MDR1 cells that were cultured to confluency (4-6 days) in a 96 transwell plate. Test compounds were diluted with the transport buffer (HBSS+1% BSA) to a concentration of 0.5 μM and applied to the apical or basolateral side of the cell monolayer. Permeation of the test compounds from A to B direction or B to A direction was determined in triplicate over a 60-minute incubation time at 37° C. and 5% CO2 with a relative humidity of 95%. Test compounds were quantified by LC-MS/MS analysis based on the peaks area ratios of analyte/IS in both the receiver and donor wells of the transwell plate.
The apparent permeability coefficient Papp (cm/s) was calculated using the equation: […]
Where dCr/dt is the cumulative concentration of compound in the receiver chamber as a function of time (μM/s); Vr is the solution volume in the receiver chamber (0.05 mL on the apical side; 0.25 mL on the basolateral side); A is the surface area for the transport, i.e. 0.0804 cm^2 for the area of the monolayer; CO is the initial concentration in the donor chamber (μM).
Compounds are classified Pgp substrates when efflux ratio (Papp BA/Papp AB) is ≥2.

[2] = Clearance in microsomes, rat; settings: 1 microM, read-out: CLint, Rat (L/h/kg) ± SD (converted)
Description: (§1) Deuterated compounds were compared to their non-deuterated parent counterparts to determine the impact of deuteration on clearance results

[3] = Clearance in hepatocytes, human; settings: read-out: CLint, Human (L/h/kg) ± SD (converted)
Description: as §1

[4] = Clearance in hepatocytes, rat; settings: read-out: CLint, Rat (L/h/kg) ± SD (converted)
Description: as §1

efflux ratio at 60 min, 0.5 μM [1]: 1.39 | CLint scaled at 1 µM [2]: 0.9 L/h/kg | CLint scaled at 0.1 µM ([3]; 0.1 microM): < 0.1 L/h/kg | CLint scaled at 0.3 µM ([3]; 0.3 microM): < 0.1 L/h/kg | CLint scaled at 1 µM ([3]; 1 microM): < 0.1 L/h/kg | CLint scaled at 0.1 µM ([4]; 0.1 microM): 1.5 L/h/kg | CLint scaled at 0.3 µM ([4]; 0.3 microM): 1.2 L/h/kg | CLint scaled at 1 µM ([4]; 1 microM): < 0.4 L/h/kg
Compound: [2H]C([2H])([2H])Oc1cnc(C(=O)Nc2ccc(F)c([C@]3(C)CC[C@@](F)(CF)C(N)=N3)c2)cn1 [Example 1, N-(3-((2S,5S)-6-amino-5-fluoro-5-(fluoromethyl)-2-methyl-2,3,4,5-tetrahydropyridin-2-yl)-4-fluorophenyl)-5-(methoxy-d3)pyrazine-2-carboxamide]
